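Assay format: 96-well plates, 48-hour exposure. Abbreviation: GI50, concentration required for 50% inhibition of growth.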 Active and inactive are the calls of the source. Cut-off read from the data, not from the text of the source: active = GI50 up to about 1.1 µM and inactive = higher.
What was measured:
Test in all cases: NCI anticancer screen, dose series, 48 h
DLD-1 = system: DLD-1
DMS-114 = system: DMS-114
DMS-273 = system: DMS-273
HOP-18 = system: HOP-18
KM-20L2 = system: KM-20L2
LXFL 529 = system: LXFL 529
SNB-78 = system: SNB-78
XF498 = system: XF498
RXF 631 = system: RXF 631

Compound	GI50 (DLD-1)	GI50 (DMS-114)	GI50 (DMS-273)	GI50 (HOP-18)	GI50 (KM-20L2)	GI50 (LXFL 529)	GI50 (SNB-78)	GI50 (XF498)	GI50 (RXF 631)
C/C(CCn1[nH]c(=O)ccc1=O)=N\N=C(N)N	> 100 µM (inactive)	> 100 µM (inactive)	> 100 µM (inactive)	> 100 µM (inactive)	> 100 µM (inactive)	> 100 µM (inactive)	> 100 µM (inactive)	> 100 µM (inactive)	
NC1=C(NC(=O)Cc2ccccc2F)C(=O)c2ccccc2C1=O	16.6 µM (inactive)	41.8 µM (inactive)	97.7 µM (inactive)	> 100 µM (inactive)	40.7 µM (inactive)				
O=C(O/N=C1/CCCC/C1=C\c1ccccc1)c1ccc(Cl)c(Cl)c1	84.5 µM (inactive)		23.9 µM (inactive)	> 100 µM (inactive)	65.3 µM (inactive)	14.6 µM (inactive)	19.1 µM (inactive)	48.8 µM (inactive)	16.8 µM (inactive)
CC(C)(C)C1CC[C@H]2c3c([nH]c4ccccc34)[C@H]3C(=O)N(c4ccc(F)cc4)C(=O)[C@H]3[C@H]2C1 (stereo partly drawn)	16.8 µM (inactive)	17.1 µM (inactive)	17.8 µM (inactive)	17.1 µM (inactive)	17.5 µM (inactive)	16 µM (inactive)	18.4 µM (inactive)	14.2 µM (inactive)	
O=C1OC(c2ccccc2)=N/C1=C\c1ccc(Oc2ccc(Cl)c(Cl)c2)cc1	48.9 µM (inactive)	15.4 µM (inactive)		> 100 µM (inactive)	56.6 µM (inactive)	25.6 µM (inactive)	25.9 µM (inactive)		
OCC(O)CNc1ccnc2cc(Cl)ccc12 (stereo not drawn)	> 100 µM (inactive)	> 100 µM (inactive)		> 100 µM (inactive)	> 100 µM (inactive)	> 100 µM (inactive)	> 100 µM (inactive)	> 100 µM (inactive)	
CC(C)CCCC(C)C1CCC2C3CC([N+](=O)[O-])=C4CC(O)CCC4(C)C3CCC12C (stereo not drawn)	19 µM (inactive)	22 µM (inactive)	12.6 µM (inactive)		18.5 µM (inactive)	18.7 µM (inactive)		22.3 µM (inactive)	
COc1cc(C=O)c(-c2c(C=O)ccc3c2OCO3)c(OC)c1OC	> 100 µM (inactive)	> 100 µM (inactive)	72.6 µM (inactive)	> 100 µM (inactive)	> 100 µM (inactive)	> 100 µM (inactive)	> 100 µM (inactive)		> 100 µM (inactive)
O=C(c1ccccc1)C(C(=O)c1ccccc1)C1(O)C(=O)c2ccccc2C1=O		> 10 µM (inactive)	20.6 µM (inactive)	68.4 µM (inactive)	34.9 µM (inactive)	28.6 µM (inactive)	62.2 µM (inactive)	84.1 µM (inactive)	
O=S(=O)(c1cccc(N=C=S)c1)c1cccc(N=C=S)c1	19.2 µM (inactive)	15.5 µM (inactive)	18.7 µM (inactive)		31.5 µM (inactive)	15.2 µM (inactive)	30.6 µM (inactive)		
Cn1c(NC(=O)NC23CC4CC(CC(C4)C2)C3)nc2ccccc21	> 100 µM (inactive)		26.5 µM (inactive)	19.2 µM (inactive)	> 100 µM (inactive)	86.1 µM (inactive)	23.8 µM (inactive)		
COc1cccc(/C=C2\N=C(Cl)OC2=O)c1O	> 76.7 µM (inactive)	> 100 µM (inactive)	> 100 µM (inactive)	> 100 µM (inactive)	> 100 µM (inactive)	> 100 µM (inactive)	> 100 µM (inactive)	> 100 µM (inactive)	
O=C(O/N=C1/CCC/C1=C\c1ccccc1)c1ccc(Cl)c(Cl)c1	> 100 µM (inactive)	> 100 µM (inactive)	> 100 µM (inactive)	> 100 µM (inactive)	> 100 µM (inactive)	> 100 µM (inactive)	> 100 µM (inactive)		> 100 µM (inactive)
COc1cc(Nc2cnc3cc(N)ccc3n2)cc(OC)c1OC	> 100 µM (inactive)	65.8 µM (inactive)	11.7 µM (inactive)	51.3 µM (inactive)	> 100 µM (inactive)	82.4 µM (inactive)		81.5 µM (inactive)	
COc1ccccc1NC(=O)C1=C(C)NC(C)=C(C(=O)Nc2ccccc2OC)C1c1ccccc1[N+](=O)[O-]	16.9 µM (inactive)	15 µM (inactive)	17.9 µM (inactive)	29.7 µM (inactive)		11.7 µM (inactive)	34.2 µM (inactive)	22.2 µM (inactive)	19.6 µM (inactive)
Nc1ccc(C(=O)NN2C(=O)C(Cl)C2c2cc(Br)cc(Br)c2O)cc1 (stereo not drawn)	13.3 µM (inactive)	4.22 µM (inactive)	6.4 µM (inactive)	3.56 µM (inactive)	33.3 µM (inactive)	20.1 µM (inactive)	63.8 µM (inactive)	14.1 µM (inactive)	

Compound	GI50 (DLD-1)	GI50 (DMS-114)	GI50 (DMS-273)	GI50 (HOP-18)	GI50 (KM-20L2)	GI50 (LXFL 529)	GI50 (SNB-78)	GI50 (XF498)	GI50 (RXF 631)
NC1=C(C(=O)O)C(=O)C(Nc2c(O)cccc2C(=O)O)=CC1=O	31.6 µM (inactive)	> 100 µM (inactive)	> 100 µM (inactive)	> 100 µM (inactive)	> 100 µM (inactive)	> 100 µM (inactive)	> 100 µM (inactive)	> 100 µM (inactive)	> 100 µM (inactive)
COc1ccc2c3c1O[C@]1(C)C34CCN(C)C(C2)C42C=C[C@@]1(OC)c1c(O)ccc(O)c12	> 100 µM (inactive)	> 100 µM (inactive)	> 100 µM (inactive)	> 100 µM (inactive)	> 100 µM (inactive)	> 100 µM (inactive)	61.8 µM (inactive)	> 100 µM (inactive)	
Cc1cc(Cl)ccc1NC(=O)CC/C(CC(=O)C(C)C)=N\NC(=O)C[n+]1ccccc1		> 100 µM (inactive)	> 100 µM (inactive)	> 100 µM (inactive)	> 100 µM (inactive)	> 100 µM (inactive)	> 100 µM (inactive)	> 100 µM (inactive)	> 100 µM (inactive)
CCN1CCC(O)(c2ccc(C)cc2)C(C(=O)c2ccc(C)cc2)C1 (stereo not drawn)	18.1 µM (inactive)		19.8 µM (inactive)	22.1 µM (inactive)	13 µM (inactive)	17.4 µM (inactive)	> 51.8 µM (inactive)	18 µM (inactive)	
CCc1ccc(NC(=O)NC(=O)c2ccccc2[N+](=O)[O-])cc1Oc1ncc(Cl)cn1	< 0.0192 µM (active)	0.0174 µM (active)	< 0.0149 µM (active)	> 100 µM (inactive)	0.0148 µM (active)	< 0.0185 µM (active)	0.0279 µM (active)	< 0.01 µM (active)	
O=[N+]([O-])c1ccc(C2=NN(c3ccccc3)C[N+](c3ccc(Br)cc3)=N2)cc1	> 100 µM (inactive)		> 100 µM (inactive)	> 100 µM (inactive)	> 100 µM (inactive)	63.5 µM (inactive)	> 100 µM (inactive)		
CCOC(=O)C(/N=N\c1ccc(S(N)(=O)=O)cc1)C(C)=O (stereo not drawn)	> 100 µM (inactive)	> 100 µM (inactive)	> 100 µM (inactive)	> 100 µM (inactive)	> 100 µM (inactive)	> 100 µM (inactive)	> 100 µM (inactive)	> 100 µM (inactive)	> 100 µM (inactive)
COc1ccc2c3c([nH]c2c1[N+](=O)[O-])C(C)N(C(=O)/C=C/c1ccccc1)CC3 (stereo not drawn)			1.57 µM (inactive)		4.18 µM (inactive)	5.9 µM (inactive)	7.05 µM (inactive)		
c1cnn(CN(Cn2cccn2)Cn2cccn2)c1	> 100 µM (inactive)	> 100 µM (inactive)	> 100 µM (inactive)		> 100 µM (inactive)		> 100 µM (inactive)	> 100 µM (inactive)	
COc1cc(C2c3cc4c(cc3[C@H](OCCN(C)C)[C@@H]3COC(=O)C23)OCO4)cc(OC)c1O (stereo partly drawn)	0.805 µM (active)		0.0385 µM (active)	0.27 µM (active)	0.364 µM (active)	2.02 µM (inactive)	3.83 µM (inactive)	0.115 µM (active)	0.0724 µM (active)
CN(C)c1ccc2c(c1)C(=O)N(OS(=O)(=O)c1ccc([N+](=O)[O-])cc1)C2=O	24 µM (inactive)	> 10 µM (inactive)	19.9 µM (inactive)	> 100 µM (inactive)		17.9 µM (inactive)	26.7 µM (inactive)	16.7 µM (inactive)	22.3 µM (inactive)
Cc1cc(C)cc(Sc2c([N+](=O)[O-])ncn2C)c1	11.9 µM (inactive)	12.2 µM (inactive)	8.09 µM (inactive)	1.28 µM (inactive)	35.2 µM (inactive)	7.83 µM (inactive)	13.6 µM (inactive)	16.6 µM (inactive)	16 µM (inactive)
O=c1cc(-c2ccccc2)oc2ccc(Cl)cc12 [6-CHLOROFLAVONE]	> 100 µM (inactive)	49.9 µM (inactive)	72.9 µM (inactive)	> 100 µM (inactive)	> 100 µM (inactive)	> 100 µM (inactive)	48.2 µM (inactive)	37.2 µM (inactive)	
CC(=O)OC(C)(C)/C=C/C(=O)[C@](C)(O)[C@H]1[C@H](O)C[C@@]2(C)[C@@H]3CC=C4[C@@H](C[C@H](O)C(=O)C4(C)C)[C@]3(CO)C(=O)C[C@]12C [CUCURBITACIN A]	0.337 µM (active)	0.483 µM (active)	0.149 µM (active)	0.148 µM (active)	0.303 µM (active)	0.34 µM (active)	0.33 µM (active)	0.374 µM (active)	
O=NN(CCCl)C(=O)NC1CCCCC1 [LOMUSTINE]	30.2 µM (inactive)	45.8 µM (inactive)	48.1 µM (inactive)	31.6 µM (inactive)	60.3 µM (inactive)	47.4 µM (inactive)		64.9 µM (inactive)	47.8 µM (inactive)

Source: ChEMBL document CHEMBL1201862, “PubChem BioAssay data set” (2004)
